Several values for one entry are separate records, joined by “and”; a condition that tells them apart may be missing. Equal values may be shown once. Read-outs that look alike come from different tables or passages of the source.

Type in all cases: in vivo
For one series, the system named is ZEAMX = Zea mays L. Kind of series: Postemergence herbicidal safening in corn (maize), greenhouse, visual injury. Particulars: for ZEAMX Obs (observed visual injury, 0 = no injury, 100 = complete kill): applied alone at 4 g ai/ha. On the procedure: (§1) When required to ensure good germination and healthy plants, a fungicide treatment and/or other chemical or physical treatment was applied. The plants were grown for 7-36 days in a greenhouse with an approximate 14 hour photoperiod which was maintained at about 18° C. during the day and 17° C. during the night. Nutrients and water were added on a regular basis and supplemental lighting was provided with overhead metal halide 1000-Watt lamps as necessary. The plants were employed for testing when they reached the second or third true leaf stage. Treatments consisted of ester (benzyl) compound of formula (I) (Compound A benzyl ester) and various safeners alone and in combination. Compound of formula (I) and safener components were applied on active ingredient basis. For treatments comprised of formulated compounds, measured amounts of compound of formula (I) were placed individually in 25 mL glass vials and diluted in a volume of 1.25% volume per volume (v/v) Agri-dex crop oil concentrate to obtain stock solutions. […] Stock solutions of the formulated safeners were prepared following the same procedure. Application solutions were prepared by mixing the required amount of each stock solution and addition of an appropriate volume of an aqueous mixture of 1.25% v/v of Agri-dex crop oil concentrate to the appropriate final concentrations of application solutions. […] Application solutions were prepared by adding an appropriate amount of each stock solution and diluted to the appropriate final concentrations with the addition of an appropriate volume of an aqueous mixture of 1.25% (v/v) Agri-dex crop oil concentrate. Application solutions were applied to the plant material with an overhead Mandel track sprayer equipped with […] nozzles calibrated to deliver 187 liters per hectare (L/ha) over an application area of 0.503 square meters (m^2) at a spray height of 18 inches ([…]) above average plant canopy. Control plants were sprayed in the same manner with the solvent blank. The treated plants and control plants were placed in a greenhouse as described above and watered by sub-irrigation to prevent wash-off of the test compounds. […] Colby's equation was used to determine the herbicidal effects expected from the mixtures (Colby, S. R. Calculation of the synergistic and antagonistic response of herbicide combinations. Weeds 1967, 15, 20-22.). The following equation was used to calculate the expected activity of mixtures containing two active ingredients, A and B: […] A=observed efficacy of active ingredient A at the same concentration as used in the mixture; B=observed efficacy of active ingredient B at the same concentration as used in the mixture.

Series [1] deals with ABUTH = Abutilon theophrasti Medik. Kind of series: Postemergence herbicidal activity, greenhouse, visual injury. Particulars: for pest or weed control at 5 g/ha / pest or weed control at 40 g/ha: Abutilon theophrasti, post-emergence, 480 h, read-out: ABUTH Obs (observed visual injury). As for the experimental part: as §1
The subject of series [2] is HELAN = Helianthus annuus L. Described as above. Particulars: for pest or weed control at 5 g/ha / pest or weed control at 40 g/ha: Helianthus annuus, post-emergence, 480 h, read-out: HELAN Obs (observed visual injury). As for the experimental part: as §1
The mark [3] stands for this setting: applied alone at 5 g ai/ha, postemergence, after 20-22 days.
[4] abbreviates: applied alone at 40 g ai/ha, postemergence, after 20-22 days.
Setting [5] is: postemergence, after 20-22 days.
Setting [6] is: applied alone at 6 g ai/ha, postemergence, after 20-22 days.
Setting [7] is: applied alone at 20 g ai/ha, postemergence, after 20-22 days.
Setting [8] is: applied alone at 80 g ai/ha, postemergence, after 20-22 days.
The mark [9] stands for this setting: applied alone at 160 g ai/ha, postemergence, after 20-22 days.

In the case of `Cc1ccc(NC(=O)NC(C)(C)c2ccccc2)cc1` [Daimuron, N-(4-methylphenyl)-N′-(1-methyl-1-phenylethyl)-urea], the “ZEAMX Obs (observed visual injury)” value in the series on ZEAMX = Zea mays L. (in vivo) turned out to be 0%. Also, the pest or weed control at 5 g/ha in series [1] (setting [3]) and in series [2] (setting [3]) was 0% throughout. Besides, the pest or weed control at 40 g/ha in series [1] (setting [4]) and in series [2] (setting [4]) was 0% in each case.

`CC1(C)OC(c2ccco2)CN1C(=O)C(Cl)Cl` (racemic) [Furilazole, (±)-3-(dichloroacetyl)-5-(2-furanyl)-2,2-dimethyloxazolidine]: the “ZEAMX Obs (observed visual injury)” value in the series on ZEAMX = Zea mays L. (setting [3]) and with ZEAMX = Zea mays L. (setting [4]) was 0% each time. In addition, the pest or weed control at 5 g/ha in series [1] (setting [3]) and in series [2] (setting [3]) was 0% each time. Further, the pest or weed control at 40 g/ha in series [1] (setting [4]) and in series [2] (setting [4]) was 0% throughout.

Consider `CC1(C)CN2C(=O)CCC2(C)N(C(=O)C(Cl)Cl)C1` (racemic) [Dicyclonon], for which the “ZEAMX Obs (observed visual injury)” value in the series with ZEAMX = Zea mays L. (setting [3]) and in the series on ZEAMX = Zea mays L. (setting [4]) was 0% throughout. Also, the pest or weed control at 5 g/ha in series [1] (setting [3]) and in series [2] (setting [3]) was 0% each time. Also, the pest or weed control at 40 g/ha in series [1] (setting [4]) and in series [2] (setting [4]) was 0% throughout.

For `C=CCN(CC=C)C(=O)C(Cl)Cl` [Dichlormid, N,N-diallyl-2,2-dichloroacetamide], the “ZEAMX Obs (observed visual injury)” value with ZEAMX = Zea mays L. (setting [3]) and with ZEAMX = Zea mays L. (setting [4]) was 0% each time. Further, the pest or weed control at 5 g/ha in series [1] (setting [3]) and in series [2] (setting [3]) was 0% in each case. Also, the pest or weed control at 40 g/ha in series [1] (setting [4]) and in series [2] (setting [4]) was 0% throughout.

For the compound `COc1c(Cl)ccc(-c2nc(C(=O)OCc3ccccc3)c(Cl)c(N)c2F)c1F` [Compound A benzyl ester], the “ZEAMX Obs (observed visual injury, 0 = no injury, 100 = complete kill)” value with ZEAMX = Zea mays L. (setting [5]) was 10%. Also, the “ZEAMX Obs (observed visual injury)” value is 16% with ZEAMX = Zea mays L. (setting [6]); 32% in the series with ZEAMX = Zea mays L. (setting [7]); 45% and 23% with ZEAMX = Zea mays L. (setting [4]). In addition, the “ABUTH Obs (observed visual injury)” value in series [1] (setting [4]) was 95%. Also, in series [2] (setting [4]), the “HELAN Obs (observed visual injury)” value was 94%.

As for `O=C1OC(=O)c2cccc3cccc1c23` [Naphthalic anhydride, naphthalene-1,8-dicarboxylic anhydride], the “ZEAMX Obs (observed visual injury)” value in the series on ZEAMX = Zea mays L. (setting [3]) and with ZEAMX = Zea mays L. (setting [4]) was 0% throughout. Moreover, the pest or weed control at 5 g/ha in series [1] (setting [3]) and in series [2] (setting [3]) was 0% each time. In addition, the pest or weed control at 40 g/ha in series [1] (setting [4]) and in series [2] (setting [4]) was 0% throughout.

For `NC(=O)NS(=O)(=O)c1ccccc1Cl` [Compound 2-CBSU, N-(aminocarbonyl)-2-chlorobenzenesulfonamide], the “ZEAMX Obs (observed visual injury)” value with ZEAMX = Zea mays L. (setting [3]) and in the series on ZEAMX = Zea mays L. (setting [4]) was 0% each time. Further, the pest or weed control at 5 g/ha in series [1] (setting [3]) and in series [2] (setting [3]) was 0% throughout. Moreover, the pest or weed control at 40 g/ha in series [1] (setting [4]) and in series [2] (setting [4]) was 0% each time.

For the compound `FC(F)(F)/C(=N/OCC1OCCO1)c1ccc(Cl)cc1` [Fluxofenim, 1-(4-chlorophenyl)-2,2,2-trifluoroethanone O-(1,3-dioxolan-2-ylmethyl)oxime], the “ZEAMX Obs (observed visual injury)” value with ZEAMX = Zea mays L. (setting [3]) and in the series on ZEAMX = Zea mays L. (setting [4]) was 0% each time. Also, the pest or weed control at 5 g/ha in series [1] (setting [3]) and in series [2] (setting [3]) was 0% throughout. The pest or weed control at 40 g/ha in series [1] (setting [4]) and in series [2] (setting [4]) was 0% throughout.

`CCOC(=O)C1=NOC(c2ccccc2)(c2ccccc2)C1` [Isoxadifen-ethyl, ethyl 4,5-dihydro-5,5-diphenyl-3-isoxazole-carboxylate]: the “ZEAMX Obs (observed visual injury, 0 = no injury, 100 = complete kill)” value in the series with ZEAMX = Zea mays L. (setting [5]) was 0%. The “ZEAMX Obs (observed visual injury)” value in the series with ZEAMX = Zea mays L. (setting [3]) is on record as 0%; in the series with ZEAMX = Zea mays L. (setting [6]), 0%; in the series on ZEAMX = Zea mays L. (applied alone at 8 g ai/ha, postemergence, after 20-22 days), 0%; with ZEAMX = Zea mays L. (applied alone at 12 g ai/ha, postemergence, after 20-22 days), 0%; with ZEAMX = Zea mays L. (setting [7]), 0%; in the series on ZEAMX = Zea mays L. (setting [4]), 0%. Also, the “ZEAMX Obs (observed visual injury)” value is given as 0% with ZEAMX = Zea mays L. (setting [8]) and 3% with ZEAMX = Zea mays L. (setting [9]). The pest or weed control at 5 g/ha in series [1] and in series [2] was 0% in each case. Further, the pest or weed control at 40 g/ha in series [1] and in series [2] was 0% throughout.

As for `N#C/C(=N/OCC1OCCO1)c1ccccc1` [Oxabetrinil, α-[(1,3-dioxolan-2-yl)methoxyimino]benzeneacetonitrile], the “ZEAMX Obs (observed visual injury)” value with ZEAMX = Zea mays L. (setting [3]) and in the series with ZEAMX = Zea mays L. (setting [4]) was 0% throughout. Further, the pest or weed control at 5 g/ha in series [1] (setting [3]) and in series [2] (setting [3]) was 0% throughout. Also, the pest or weed control at 40 g/ha in series [1] (setting [4]) and in series [2] (setting [4]) was 0% each time.

For `CC1COc2ccccc2N1C(=O)C(Cl)Cl` (racemic) [Benoxacor, (±)-4-(dichloroacetyl)-3,4-dihydro-3-methyl-2H-1,4-benzoxazine], the “ZEAMX Obs (observed visual injury)” value in the series on ZEAMX = Zea mays L. (setting [3]) and in the series with ZEAMX = Zea mays L. (setting [4]) was 0% each time. Also, the pest or weed control at 5 g/ha in series [1] (setting [3]) and in series [2] (setting [3]) was 0% in each case. Besides, the pest or weed control at 40 g/ha in series [1] (setting [4]) and in series [2] (setting [4]) was 0% in each case.

Take `CCCCCC(C)OC(=O)COc1ccc(Cl)c2cccnc12` (stereo not shown) [Cloquintocet-mexyl]: the “ZEAMX Obs (observed visual injury)” value in the series with ZEAMX = Zea mays L. (setting [7]), in the series with ZEAMX = Zea mays L. (setting [4]), in the series on ZEAMX = Zea mays L. (setting [8]) and in the series on ZEAMX = Zea mays L. (setting [9]) was 0% in each case.

For the origin of these results see US9788542B2, “Safened herbicidal compositions including 4-amino-3-chloro-5-fluoro-6-(4-chloro-2-fluoro-3-methoxyphenyl)pyridine-2-carbox) acid or a derivative thereof for use in corn (maize)” (Dow AgroSciences LLC, priority 2013, dated 2017).
